# Experimental data published in ChEMBL document CHEMBL3352214, “Studies on indolizines. Evaluation of their biological properties as microtubule-interacting agents and as melanoma targeting compounds” (Eur J Med Chem, 2015).
# Legend:
# [1] = Inhibition of sheep brain tubulin polymerization by fluorescence assay; design: species or system Ovis aries
# [2] = species on record: Ovis aries; assay: Inhibition of sheep brain tubulin polymerization at 100 uM by fluorescence assay
# [3] = Growth inhibition of human PC3 cells after 48 hrs by SRB assay; format: functional; details: PC-3, 48 h
# [4] = Growth inhibition of human COLO205 cells after 48 hrs by SRB assay; format: functional; details: COLO 205, 48 h
# [5] = test system: SR; assay: Growth inhibition of human SR cells after 48 hrs by SRB assay; format: functional
# [6] = test system: K562; assay: Growth inhibition of human K562 cells after 48 hrs by SRB assay; format: functional; details: K562, 48 h
# [7] = test system: MDA-MB-435; assay: Cytotoxicity against human MDA-MB-435 cells assessed as cell growth at 10^-5 M after 48 hrs by SRB assay; format: functional; details: MDA-MB-435, 48 h, read-out: Activity
# [8] = test system: A498; assay: Growth inhibition of human A498 cells after 48 hrs by SRB assay; format: functional; details: A498, 48 h
# [9] = test system: SK-MEL-5; assay: Growth inhibition of human SK-MEL-5 cells after 48 hrs by SRB assay; format: functional; details: SK-MEL-5, 48 h
# [10] = test system: HT-29; assay: Growth inhibition of human HT-29 cells after 48 hrs by SRB assay; format: functional; details: HT-29, 48 h
# [11] = test system: NCI-H522; assay: Growth inhibition of human NCI-H522 cells after 48 hrs by SRB assay; format: functional; details: NCI-H522, 48 h
# [12] = test system: KM12; assay: Growth inhibition of human KM12 cells after 48 hrs by SRB assay; format: functional; details: KM12, 48 h
# [13] = Growth inhibition of human HOP92 cells at 10^-5 M after 48 hrs by SRB assay; format: functional; details: HOP-92, 48 h, read-out: GI
# [14] = Growth inhibition of human HCT116 cells at 10^-5 M after 48 hrs by SRB assay; format: functional; details: HCT-116, 48 h, read-out: GI
# [15] = test system: MDA-MB-435; assay: Growth inhibition of human MDA-MB-435 cells at 10^-5 M after 48 hrs by SRB assay; format: functional; details: MDA-MB-435, 48 h, read-out: GI
# [16] = Growth inhibition of human EKVX cells at 10^-5 M after 48 hrs by SRB assay; format: functional; details: read-out: GI
# [17] = test system: CAKI-1; assay: Growth inhibition of human Caki1 cells at 10^-5 M after 48 hrs by SRB assay; format: functional; details: CAKI-1, 48 h, read-out: GI
# [18] = Growth inhibition of human OVCAR3 cells after 48 hrs by SRB assay; format: functional; details: OVCAR-3, 48 h
# [19] = test system: HL-60(TB); assay: Cytotoxicity against human HL-60(TB) cells assessed as cell growth at 10^-5 M after 48 hrs by SRB assay; format: functional; details: HL-60, 48 h, read-out: Activity
# [20] = test system: SNB-75; assay: Growth inhibition of human SNB75 cells at 10^-5 M after 48 hrs by SRB assay; format: functional; details: SNB-75, 48 h, read-out: GI
# [21] = test system: SNB-75; assay: Growth inhibition of human SNB75 cells after 48 hrs by SRB assay; format: functional; details: SNB-75, 48 h
# [22] = test system: NCI-H522; assay: Cytotoxicity against human NCI-H522 cells assessed as cell growth at 10^-5 M after 48 hrs by SRB assay; format: functional; details: NCI-H522, 48 h, read-out: Activity
# [23] = Growth inhibition of human SF295 cells at 10^-5 M after 48 hrs by SRB assay; format: functional; details: SF-295, 48 h, read-out: GI
# [24] = test system: T47D; assay: Growth inhibition of human T47D cells at 10^-5 M after 48 hrs by SRB assay; format: functional; details: Homo sapiens, T47D, 48 h; read-out: GI
# [25] = test system: MDA-MB-468; assay: Growth inhibition of human MDA-MB-468 cells after 48 hrs by SRB assay; format: functional; details: MDA-MB-468, 48 h
# [26] = test system: Malme-3M; assay: Growth inhibition of human MALME-3M cells at 10^-5 M after 48 hrs by SRB assay; format: functional; details: read-out: GI
# [27] = test system: NCI-H522; assay: Growth inhibition of human NCI-H522 cells at 10^-5 M after 48 hrs by SRB assay; format: functional; details: NCI-H522, 48 h, read-out: GI
# [28] = Growth inhibition of human PC3 cells at 10^-5 M after 48 hrs by SRB assay; format: functional; details: PC-3, 48 h, read-out: GI
# [29] = Growth inhibition of human HCT15 cells at 10^-5 M after 48 hrs by SRB assay; format: functional; details: HCT-15, 48 h, read-out: GI
# [30] = test system: A498; assay: Growth inhibition of human A498 cells at 10^-5 M after 48 hrs by SRB assay; format: functional; details: A498, 48 h, read-out: GI
# [31] = test system: MDA-MB-435; assay: Growth inhibition of human MDA-MB-435 cells after 48 hrs by SRB assay; format: functional; details: MDA-MB-435, 48 h
# [32] = Growth inhibition of human MOLT4 cells at 10^-5 M after 48 hrs by SRB assay; format: functional; details: MOLT-4, 48 h, read-out: GI
# [33] = test system: HL-60(TB); assay: Growth inhibition of human HL-60(TB) cells after 48 hrs by SRB assay; format: functional; details: HL-60, 48 h
# [34] = test system: A498; assay: Cytotoxicity against human A498 cells assessed as cell growth at 10^-5 M after 48 hrs by SRB assay; format: functional; details: A498, 48 h, read-out: Activity
# [35] = test system: NCI/ADR-RES; assay: Growth inhibition of human NCI/ADR-RES cells after 48 hrs by SRB assay; format: functional
# [36] = test system: MCF7; assay: Growth inhibition of human MCF7 cells at 10^-5 M after 48 hrs by SRB assay; format: functional; details: MCF7, 48 h, read-out: GI
# [37] = test system: HL-60(TB); assay: Growth inhibition of human HL-60(TB) cells at 10^-5 M after 48 hrs by SRB assay; format: functional; details: HL-60, 48 h, read-out: GI
# [38] = test system: MCF7; assay: Growth inhibition of human MCF7 cells after 48 hrs by SRB assay; format: functional; details: MCF7, 48 h
# [39] = test system: SNB-75; assay: Cytotoxicity against human SNB75 cells assessed as cell growth at 10^-5 M after 48 hrs by SRB assay; format: functional; details: SNB-75, 48 h, read-out: Activity
smiles,measurement,setting,value
CCOC(=O)c1c(C(=O)OCC)c2cccc(C)n2c1C(=O)c1cc(OC)c(OC)c(OC)c1,IC50,[1],174000 nM
same,inhibition,[2],58%
CCOC(=O)c1c(C(=O)OCC)c2c(C)cc(C)cn2c1C(=O)c1cc(OC)c(OC)c(OC)c1,IC50,[1],93200 nM
same,inhibition,[2],58%
CCOC(=O)c1cc(C(=O)c2cc(OC)c(OC)c(OC)c2)n2cccc(C#N)c12,GI50,[3],230 nM
same,GI50,[4],171 nM
same,GI50,[5],63 nM
same,GI50,[6],222 nM
same,growth at 10 µM,[7],-29%
same,IC50,[1],12000 nM
same,GI50,[8],201 nM
same,GI50,[9],94 nM
same,GI50,[10],236 nM
same,GI50,[11],142 nM
same,GI50,[12],190 nM
same,inhibition of growth at 10 µM,[13],89%
same,inhibition of growth at 10 µM,[14],79%
same,inhibition of growth at 10 µM,[15],100%
same,inhibition of growth at 10 µM,[16],50%
same,inhibition of growth at 10 µM,[17],74%
same,GI50,[18],180 nM
same,growth at 10 µM,[19],-14%
same,inhibition of growth at 10 µM,[20],82%
same,GI50,[21],164 nM
same,growth at 10 µM,[22],-10%
same,inhibition,[2],69%
same,inhibition of growth at 10 µM,[23],81%
same,inhibition of growth at 10 µM,[24],60%
same,GI50,[25],332 nM
same,inhibition of growth at 10 µM,[26],44%
same,inhibition of growth at 10 µM,[27],100%
same,inhibition of growth at 10 µM,[28],68%
same,inhibition of growth at 10 µM,[29],66%
same,inhibition of growth at 10 µM,[30],100%
same,GI50,[31],30 nM
same,inhibition of growth at 10 µM,[32],72%
same,GI50,[33],220 nM
same,growth at 10 µM,[34],-13%
same,GI50,[35],158 nM
same,inhibition of growth at 10 µM,[36],71%
same,inhibition of growth at 10 µM,[37],100%
same,GI50,[38],252 nM
COC(=O)c1c(C(=O)OC)c2c(C)cc(C)cn2c1C(=O)c1ccc(OC)cc1,IC50,[1],81200 nM
same,inhibition,[2],61%
COc1ccc(C(=O)c2cc(C#N)c3c(C)cc(C)cn23)cc1,inhibition of growth at 10 µM,[13],43%
same,inhibition of growth at 10 µM,[14],80%
same,inhibition of growth at 10 µM,[15],27%
same,inhibition of growth at 10 µM,[17],28%
same,inhibition of growth at 10 µM,[20],100%
same,inhibition,[2],27%
same,inhibition of growth at 10 µM,[23],30%
same,inhibition of growth at 10 µM,[24],60%
same,inhibition of growth at 10 µM,[26],35%
same,inhibition of growth at 10 µM,[27],58%
same,inhibition of growth at 10 µM,[28],38%
same,inhibition of growth at 10 µM,[29],27%
same,growth at 10 µM,[39],-4%
same,inhibition of growth at 10 µM,[30],53%
same,inhibition of growth at 10 µM,[32],1%
same,inhibition of growth at 10 µM,[36],46%
same,inhibition of growth at 10 µM,[37],0%
CCOC(=O)c1c(C(=O)OCC)c2cc(OC)ccn2c1C(=O)c1cc(OC)c(OC)c(OC)c1,IC50,[1],90400 nM
same,inhibition,[2],57%
